Data on 1 molecule can be found in article PMC3908613 (Bioscience Reports, 2014).

The target in test [1] is T1, GST-Lok (Homo sapiens, UniProt O94804).
T1 construct: GST; purchased DSTT
Nature of the test: Kinase assay for recombinant Lok. Format: biochemical. The note with it: 25 μM ATP, 100 μM AXLTIDE substrate.
Protocol: (§2) The kinase reaction for Lok and Slk was supplemented with 12.5 mM sodium glycerophosphate and 0.25 mM sodium orthovanadate. The reactions were incubated for 15–20 min at 30°C then terminated and analysed as described previously [14].

In test [2] the target is T2, rSlk (Homo sapiens, UniProt Q9H2G2).
T2 construct: purchased Millipore
Nature of the test: Kinase assay for recombinant Slk. Format: biochemical. The note with it: 25 μM ATP, bovine histone H1 substrate.
Protocol: as §2

The target in test [3] is T3, Rsk2 (Mus musculus, UniProt P18654).
T3 construct: recovered on streptavidin beads following desthiobiotin-ATP labelling of DC lysates including Rsk2, Erk1/2 and p38; endogenous in cells; host or cells: mouse spleen-derived dendritic cells (SDC), lysate
Nature of the test: Desthiobiotin-ATP probe capture on streptavidin beads, Western blot. The settings on record: 10 μM inhibitor, DC lysate. Format: binding, C57BL/6 mice.

Test [4] concerns the target T4, Erk1/2 (Mus musculus, UniProt P63085).
T4 construct: recovered on streptavidin beads following desthiobiotin-ATP labelling of DC lysates including Rsk2, Erk1/2 and p38; endogenous in cells; host or cells: mouse spleen-derived dendritic cells (SDC), lysate
The description is as above. The note with it: 10 μM inhibitor, DC lysate. The class given is binding, C57BL/6 mice. How it is done: (§1) SDC were cultured for at least 14 days in RPMI (without arginine and lysine, custom-made by Biosera) containing 10% dialysed FCS (Hyclone) supplemented with 84 mg/l of L-arginine (Sigma) and 40 mg/l L-lysine (Sigma) for the 'light' medium or 84 mg/l of […] or ^13C10 and 40 mg/l […] (Cambridge Isotope Laboratory) for the 'heavy' medium. Equal numbers (2×10^7) of 'light' or 'heavy' labelled SDCs were incubated in RPMI containing 0.5% FCS for 3 h in 15 cm dishes. The cells were lysed in the lysis buffer provided in the kit (Pierce). […] Labelling with the desthiobiotin ATP probe, and precipitation with streptavidin beads were performed according to the manufacturer's instructions (Pierce kinase enrichment kit or ActivXTM).

For test [5], the system named is p38. The test is described as above. Format: binding, C57BL/6 mice. The settings on record: 10 μM inhibitor, DC lysate. The method, then: as §1
The test system of test [6] is DC. Briefly: Actin cytoskeleton organisation in DC (confocal microscopy). Format: cell-based, C57BL/6 mice. The settings on record: 4 μM D1870 or 2 μM BIX, 1h30 at 37°C. The method, then:
2 μMBIXfor1h30at37◦ C. Cells were ﬁxed in 4 % (v/v) paraformalde-hyde for 15 min, permeabilized with 0.1 % Triton for 5 min and stained with phalloidin-Alexa 555 (Invitrogen) and anti-vinculin antibody (Sigma) followed by goat anti-mouse Alexa 488 antibody (invitrogen). Cells were analysed on a Zeiss700 confocal microscope. V inculin (green) and phal-loidin (red). Error bar 10 μm. Images are representative of three inde- […]
© 2014 The Author(s) This is an Open Access ar ticle distributed under the terms of the Creative Commons Attribution Licence (CC-BY) (http://creativecommons.org/licenses/by/3.0/)c which permits unrestricted use, distribution and reproduction in any medium, provided the original work is properly cited.
(1 picture or pasted object on this page, not shown here)

T1 sequence (O94804 whole entry): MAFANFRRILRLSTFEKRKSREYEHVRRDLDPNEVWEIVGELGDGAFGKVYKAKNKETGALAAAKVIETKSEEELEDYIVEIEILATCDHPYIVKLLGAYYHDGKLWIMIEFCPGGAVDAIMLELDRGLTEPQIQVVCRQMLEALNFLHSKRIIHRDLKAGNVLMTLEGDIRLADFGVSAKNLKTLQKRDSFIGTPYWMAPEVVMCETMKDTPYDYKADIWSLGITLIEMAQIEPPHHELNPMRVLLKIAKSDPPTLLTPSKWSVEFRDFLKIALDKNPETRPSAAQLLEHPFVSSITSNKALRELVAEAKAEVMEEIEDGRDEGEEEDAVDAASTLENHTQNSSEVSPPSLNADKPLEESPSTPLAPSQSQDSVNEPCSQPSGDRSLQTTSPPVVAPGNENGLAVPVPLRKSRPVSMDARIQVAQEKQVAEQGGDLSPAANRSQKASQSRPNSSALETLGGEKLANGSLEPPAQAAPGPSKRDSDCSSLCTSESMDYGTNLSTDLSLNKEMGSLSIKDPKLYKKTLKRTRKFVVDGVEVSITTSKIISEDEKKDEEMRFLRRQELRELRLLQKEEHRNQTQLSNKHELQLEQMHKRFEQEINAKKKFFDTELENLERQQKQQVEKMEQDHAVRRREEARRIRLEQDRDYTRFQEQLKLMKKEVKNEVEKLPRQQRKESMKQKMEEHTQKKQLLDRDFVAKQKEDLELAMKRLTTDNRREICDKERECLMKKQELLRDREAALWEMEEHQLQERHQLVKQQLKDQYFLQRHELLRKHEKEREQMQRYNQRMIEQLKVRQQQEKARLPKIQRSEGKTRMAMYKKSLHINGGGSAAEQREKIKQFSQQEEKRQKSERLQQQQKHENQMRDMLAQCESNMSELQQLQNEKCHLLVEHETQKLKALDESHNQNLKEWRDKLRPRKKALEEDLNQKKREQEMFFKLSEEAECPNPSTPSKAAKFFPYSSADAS
T4 sequence (P63085 2-358): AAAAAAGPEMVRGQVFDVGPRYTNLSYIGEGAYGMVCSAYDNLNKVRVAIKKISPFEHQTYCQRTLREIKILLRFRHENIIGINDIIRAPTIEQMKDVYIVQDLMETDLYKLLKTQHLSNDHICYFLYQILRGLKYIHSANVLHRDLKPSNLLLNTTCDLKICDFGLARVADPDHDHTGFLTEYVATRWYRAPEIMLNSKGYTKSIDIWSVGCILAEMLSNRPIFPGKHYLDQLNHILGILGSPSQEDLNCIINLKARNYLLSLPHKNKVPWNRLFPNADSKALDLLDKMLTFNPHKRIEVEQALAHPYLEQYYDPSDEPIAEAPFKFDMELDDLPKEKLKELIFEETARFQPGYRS
T3 sequence (P18654 whole entry): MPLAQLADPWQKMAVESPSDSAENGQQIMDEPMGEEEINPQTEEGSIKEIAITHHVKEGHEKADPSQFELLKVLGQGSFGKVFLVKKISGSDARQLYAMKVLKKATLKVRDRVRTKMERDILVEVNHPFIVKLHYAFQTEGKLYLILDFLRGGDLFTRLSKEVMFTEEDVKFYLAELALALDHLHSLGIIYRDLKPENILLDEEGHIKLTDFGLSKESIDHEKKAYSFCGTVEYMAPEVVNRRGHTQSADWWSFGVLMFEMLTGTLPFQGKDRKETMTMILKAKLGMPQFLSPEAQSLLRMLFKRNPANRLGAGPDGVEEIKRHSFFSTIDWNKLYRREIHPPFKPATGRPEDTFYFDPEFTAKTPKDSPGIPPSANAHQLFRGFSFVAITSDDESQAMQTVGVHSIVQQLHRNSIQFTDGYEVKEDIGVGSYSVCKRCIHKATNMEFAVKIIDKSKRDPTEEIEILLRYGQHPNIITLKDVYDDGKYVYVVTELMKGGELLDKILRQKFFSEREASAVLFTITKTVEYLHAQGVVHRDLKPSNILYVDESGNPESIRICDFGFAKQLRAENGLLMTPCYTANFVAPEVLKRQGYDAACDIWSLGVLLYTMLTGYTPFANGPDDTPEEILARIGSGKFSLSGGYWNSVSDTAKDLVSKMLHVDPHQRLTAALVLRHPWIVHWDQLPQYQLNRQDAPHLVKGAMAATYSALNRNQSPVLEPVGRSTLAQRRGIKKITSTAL
T2 sequence (Q9H2G2 whole entry): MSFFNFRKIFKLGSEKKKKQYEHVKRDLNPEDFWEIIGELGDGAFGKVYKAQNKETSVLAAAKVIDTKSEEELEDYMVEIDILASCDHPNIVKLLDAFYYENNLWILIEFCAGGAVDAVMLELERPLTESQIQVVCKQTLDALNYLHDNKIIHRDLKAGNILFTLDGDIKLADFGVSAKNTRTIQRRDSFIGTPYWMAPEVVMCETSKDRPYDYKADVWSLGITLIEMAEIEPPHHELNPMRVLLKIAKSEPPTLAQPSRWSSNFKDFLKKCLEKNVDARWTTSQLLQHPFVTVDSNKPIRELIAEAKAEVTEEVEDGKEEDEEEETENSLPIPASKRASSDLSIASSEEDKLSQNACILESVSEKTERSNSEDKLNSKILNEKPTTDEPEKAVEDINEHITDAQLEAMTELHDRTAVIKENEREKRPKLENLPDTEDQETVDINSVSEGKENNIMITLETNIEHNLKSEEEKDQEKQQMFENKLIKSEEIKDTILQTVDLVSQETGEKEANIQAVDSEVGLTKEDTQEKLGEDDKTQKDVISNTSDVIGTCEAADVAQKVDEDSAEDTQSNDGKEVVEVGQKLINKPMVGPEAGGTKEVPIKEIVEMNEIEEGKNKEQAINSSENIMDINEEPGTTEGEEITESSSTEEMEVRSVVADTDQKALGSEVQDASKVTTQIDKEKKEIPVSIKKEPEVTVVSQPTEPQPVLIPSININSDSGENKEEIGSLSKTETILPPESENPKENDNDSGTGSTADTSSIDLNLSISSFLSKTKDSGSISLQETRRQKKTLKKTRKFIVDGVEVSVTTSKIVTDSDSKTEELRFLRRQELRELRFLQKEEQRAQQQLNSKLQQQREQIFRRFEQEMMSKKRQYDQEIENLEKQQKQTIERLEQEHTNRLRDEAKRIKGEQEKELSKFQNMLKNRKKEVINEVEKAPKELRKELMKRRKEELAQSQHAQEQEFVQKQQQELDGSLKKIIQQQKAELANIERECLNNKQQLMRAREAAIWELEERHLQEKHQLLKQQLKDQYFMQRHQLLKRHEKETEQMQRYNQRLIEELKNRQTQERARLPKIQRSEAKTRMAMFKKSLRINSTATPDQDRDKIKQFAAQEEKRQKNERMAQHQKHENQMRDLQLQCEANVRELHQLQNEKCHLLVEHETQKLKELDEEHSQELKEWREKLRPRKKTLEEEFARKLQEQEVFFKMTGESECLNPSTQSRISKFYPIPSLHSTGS

Turning to `CC(C)CCN1c2nc(Nc3cc(F)c(O)c(F)c3)ncc2N(C)C(=O)C1C` (stereo not drawn) [D1870, BI-D1870], the IC50 (as a rule, the concentration needed to halve the response being measured) in test [1] stood at 500 nM; in test [2], 250 nM. The “capture of Rsk2 on streptavidin beads” value in test [3] is on record as “blocked”. The “capture of Erk1/2 on streptavidin beads” value in test [4] was “not Erk1/2 or p38, was blocked”. Also, the “capture of p38 on streptavidin beads” value in test [5] was “not Erk1/2 or p38, was blocked”. For the same molecule, the “morphological changes in resting DC (cell spreading, focal adhesion, loss of podosomes)” value in test [6] was “induced morphological changes”.
